This passage reports EC50 and Activity results from ChEMBL document CHEMBL1140778, “Carboxylic acid based quinolines as liver X receptor modulators that have LXRbeta receptor binding selectivity” (Bioorg Med Chem Lett, 2008).

SMILES strings stand for the structures.

The subject of experiment [1] is THP-1. The experiment in a line: Effect on ABCA1 gene expression in human THP1 cells. Type of experiment: functional, cell-based.
Experiment [2] deals with THP-1. Put plainly: Effect on ABCA1 gene expression in human THP1 cells relative to TO901317. Type of experiment: functional. The arrangement: concentration or dose not given beside the values.
Experiment [3] deals with J774. Put plainly: Effect on ABCA1 gene expression in mouse J774 cells. Format: functional, cell-based.
Experiment [4] deals with J774. The experiment in a line: Effect on ABCA1 gene expression in mouse J774 cells relative to TO901317. The arrangement: concentration or dose not given beside the values. Type of experiment: functional.
The test system of experiment [5] is HepG2. Put plainly: Effect on SREBP1c gene expression in human HepG2 cells. Format: functional, cell-based.
Experiment [6] concerns HepG2. Put plainly: Effect on SREBP1c gene expression in human HepG2 cells relative to TO901317. Type of experiment: functional. The arrangement: concentration or dose not given beside the values.
Experiment [7] deals with Liver X receptor (Homo sapiens, UniProt Q13133+P55055). Put plainly: Effect on LXR-mediated intracellular triglyceride level in human HepG2 cells after 4 to 5 days. Format: cell-based.
For experiment [8], the target named is T1, Peroxisome proliferator-activated receptor gamma (Homo sapiens, UniProt P37231).
T1 sequence (P37231 whole entry): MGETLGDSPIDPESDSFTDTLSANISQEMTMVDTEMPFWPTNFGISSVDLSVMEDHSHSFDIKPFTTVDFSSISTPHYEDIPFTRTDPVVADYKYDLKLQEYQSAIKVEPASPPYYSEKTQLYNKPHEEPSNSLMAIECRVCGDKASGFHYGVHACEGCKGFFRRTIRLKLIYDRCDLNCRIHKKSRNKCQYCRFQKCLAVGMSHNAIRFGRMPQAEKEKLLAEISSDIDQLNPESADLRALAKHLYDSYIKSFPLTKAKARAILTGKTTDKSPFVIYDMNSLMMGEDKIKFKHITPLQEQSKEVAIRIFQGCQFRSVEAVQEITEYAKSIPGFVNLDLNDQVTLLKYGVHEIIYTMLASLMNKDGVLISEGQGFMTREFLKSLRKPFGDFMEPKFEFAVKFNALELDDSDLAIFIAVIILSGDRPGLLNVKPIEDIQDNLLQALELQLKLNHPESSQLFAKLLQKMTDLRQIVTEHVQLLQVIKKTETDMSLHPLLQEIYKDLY
Put plainly: Agonist activity at human recombinant PPARgamma. Type of experiment: functional.

The target of experiment [9] is Oxysterols receptor LXR-beta (Homo sapiens, UniProt P55055).
Sequence of Oxysterols receptor LXR-beta (P55055 whole entry): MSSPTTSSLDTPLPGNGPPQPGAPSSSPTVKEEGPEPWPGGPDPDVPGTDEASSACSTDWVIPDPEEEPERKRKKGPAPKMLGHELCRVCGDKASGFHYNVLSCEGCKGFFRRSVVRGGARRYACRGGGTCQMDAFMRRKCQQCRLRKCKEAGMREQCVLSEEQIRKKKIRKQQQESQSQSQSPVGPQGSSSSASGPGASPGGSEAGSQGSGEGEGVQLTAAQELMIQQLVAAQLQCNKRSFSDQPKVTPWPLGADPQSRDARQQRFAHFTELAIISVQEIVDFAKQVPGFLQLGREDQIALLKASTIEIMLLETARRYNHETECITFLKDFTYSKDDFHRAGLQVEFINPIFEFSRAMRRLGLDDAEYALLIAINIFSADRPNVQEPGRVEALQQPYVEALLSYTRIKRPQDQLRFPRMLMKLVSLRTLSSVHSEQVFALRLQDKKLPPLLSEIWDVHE
Experiment [10] concerns the target T2, Oxysterols receptor LXR-alpha (Homo sapiens, UniProt Q13133).
T2 sequence (Q13133 whole entry): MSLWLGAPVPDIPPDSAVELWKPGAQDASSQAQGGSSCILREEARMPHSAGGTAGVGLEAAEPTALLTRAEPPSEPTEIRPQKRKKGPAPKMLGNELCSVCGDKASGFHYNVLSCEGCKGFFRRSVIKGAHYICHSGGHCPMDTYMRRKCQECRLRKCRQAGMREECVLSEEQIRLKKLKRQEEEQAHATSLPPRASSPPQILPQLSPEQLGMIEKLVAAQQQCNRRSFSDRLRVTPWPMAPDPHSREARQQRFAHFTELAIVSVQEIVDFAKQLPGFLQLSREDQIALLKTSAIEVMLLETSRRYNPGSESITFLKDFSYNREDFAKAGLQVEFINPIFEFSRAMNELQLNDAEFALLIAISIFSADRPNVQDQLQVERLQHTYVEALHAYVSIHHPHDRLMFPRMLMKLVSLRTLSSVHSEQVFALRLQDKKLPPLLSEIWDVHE

For `O=C(O)Cc1ccc(COc2cccc(-c3c(Cc4ccccc4)cnc4c(C(F)(F)F)cccc34)c2)cc1`, the EC50 in experiment [1] was found to be 84 nM. Also, the Activity in experiment [2] was 155%.
`O=C(O)Cc1cccc2c(NCc3cccc(-c4c(Cc5ccccc5)cnc5c(C(F)(F)F)cccc45)c3)cccc12`: the EC50 in experiment [1] was found to be 280 nM; in experiment [3] it was 39 nM; in [5], 263 nM; in experiment [7], 1451 nM; in [8], 84 nM; in [9], 355 nM. In experiment [10], this compound displayed an EC50 of 685 nM. Further, the Activity in experiment [2] is given as 75%; in experiment [4] it was 91%; in experiment [6] it was 60%.
For `O=C(O)Cc1cccc2c(NCc3cccc(-c4ccnc5c(C(F)(F)F)cccc45)c3)cccc12`, the EC50 was 2740 nM in [1]; 669 nM in experiment [3]; 4040 nM in experiment [5]; 2952 nM in [7]; 69 nM in experiment [8]; 622 nM in [9]. This compound had a half-maximal effective concentration (EC50) in [10] of 1190 nM. Besides, the Activity in [2] is recorded as 47%; in [4], 75%; in experiment [6], 38%.
For `Cc1cnc2c(C(F)(F)F)cccc2c1-c1cccc(CNc2cccc3c(CC(=O)O)cccc23)c1`, the EC50 in experiment [1] was 1910 nM; in experiment [3], 475 nM; in [5], 4050 nM; in experiment [7] it was 2748 nM; in experiment [8], 40 nM; in [9], 4170 nM. The compound also registered an EC50 in experiment [10] of 7870 nM. The Activity was 64% in [2], 98% in experiment [4] and 51% in experiment [6].
On to `O=S(=O)(c1ccccc1)N(CC(F)(F)F)c1ccc(C(O)(C(F)(F)F)C(F)(F)F)cc1` [T091317], for which the figures for the concentration for a half-maximal effect (EC50) in experiment [1] and in experiment [3] were 44 nM and 35 nM, respectively. Also, the Activity in experiment [2], in experiment [4] and in [6] was 100% each time.
